Measured values: ChEMBL document CHEMBL1153907, “Synthesis and biological evaluation of C-12 triazole and oxadiazole analogs of salvinorin A” (Bioorg Med Chem Lett, 2009)

Assays:
[1] = biological target: T1, Kappa-type opioid receptor (Homo sapiens, UniProt P41145); assay: Agonist activity at human kappa opioid receptor expressed in CHO cells assessed as increase in […] [35S]GTPgammaS binding; type: functional, cell-based
[2] = biological target: Delta-type opioid receptor (Mus musculus, UniProt P32300); assay: Displacement of [3H]diprenorphine from mouse delta opioid receptor expressed in CHO cells; type: cell-based
Delta-type opioid receptor, sequence (P32300 whole entry): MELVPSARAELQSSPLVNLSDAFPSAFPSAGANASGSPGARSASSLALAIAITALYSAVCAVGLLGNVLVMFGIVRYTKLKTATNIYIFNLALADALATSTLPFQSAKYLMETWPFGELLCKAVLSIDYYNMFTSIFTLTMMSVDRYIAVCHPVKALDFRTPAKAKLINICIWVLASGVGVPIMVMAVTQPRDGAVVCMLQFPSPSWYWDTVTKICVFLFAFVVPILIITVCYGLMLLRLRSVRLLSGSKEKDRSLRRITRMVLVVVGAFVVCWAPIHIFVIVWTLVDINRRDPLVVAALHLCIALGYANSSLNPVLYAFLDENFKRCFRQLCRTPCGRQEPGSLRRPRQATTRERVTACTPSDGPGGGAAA

[3] = biological target: T1, Kappa-type opioid receptor; assay: Displacement of [3H]diprenorphine from human kappa opioid receptor expressed in CHO cells; type: cell-based
Mu-type opioid receptor = Mu-type opioid receptor (Rattus norvegicus, UniProt P33535); assay: Displacement of [3H]diprenorphine from rat mu opioid receptor expressed in CHO cells; type: cell-based
Mu-type opioid receptor, sequence (P33535 whole entry): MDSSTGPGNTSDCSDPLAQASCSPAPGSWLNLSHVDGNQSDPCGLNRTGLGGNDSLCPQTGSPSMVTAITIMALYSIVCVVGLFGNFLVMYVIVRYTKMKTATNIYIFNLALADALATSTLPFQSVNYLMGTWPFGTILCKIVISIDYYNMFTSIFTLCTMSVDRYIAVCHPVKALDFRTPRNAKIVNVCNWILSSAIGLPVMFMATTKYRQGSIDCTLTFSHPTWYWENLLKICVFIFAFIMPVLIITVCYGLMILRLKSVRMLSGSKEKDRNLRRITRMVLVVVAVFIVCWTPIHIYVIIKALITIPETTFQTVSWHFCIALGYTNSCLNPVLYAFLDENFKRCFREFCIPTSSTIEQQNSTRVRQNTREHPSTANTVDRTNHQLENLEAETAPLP

[4] = biological target: T1, Kappa-type opioid receptor; assay: Displacement of [3H]diprenorphine from human kappa opioid receptor expressed in CHO cells in presence of EGTA; type: cell-based

T1 sequence (P41145 whole entry): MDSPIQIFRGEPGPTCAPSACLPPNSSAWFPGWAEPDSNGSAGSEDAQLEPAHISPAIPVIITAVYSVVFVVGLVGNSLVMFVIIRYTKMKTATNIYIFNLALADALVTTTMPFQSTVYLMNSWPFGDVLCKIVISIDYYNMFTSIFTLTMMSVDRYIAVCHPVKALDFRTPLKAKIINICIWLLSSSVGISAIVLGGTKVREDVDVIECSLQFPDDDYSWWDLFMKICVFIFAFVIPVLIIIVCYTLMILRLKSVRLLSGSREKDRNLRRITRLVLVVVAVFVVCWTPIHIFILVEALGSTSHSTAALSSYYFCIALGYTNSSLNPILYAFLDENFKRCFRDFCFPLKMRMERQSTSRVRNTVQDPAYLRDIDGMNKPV

COC(=O)[C@@H]1C[C@H](OC(C)=O)C(=O)[C@H]2[C@@]1(C)CC[C@H]1C(=O)O[C@H](c3nc(C)no3)C[C@]21C
> 1000 nM: EC50 [1] | Ki [2] | Ki [3] | Ki (Mu-type opioid receptor) | Ki [4]

COC(=O)[C@@H]1C[C@H](OC(C)=O)C(=O)[C@H]2[C@@]1(C)CC[C@H]1C(=O)O[C@H](c3cn(Cc4ccccc4)nn3)C[C@]21C
> 1000 nM: Ki [2] | Ki [3] | Ki (Mu-type opioid receptor)

COC(=O)[C@@H]1C[C@H](OC(C)=O)C(=O)[C@H]2[C@@]1(C)CC[C@H]1C(=O)O[C@H](c3cn(COC(=O)C(C)(C)C)nn3)C[C@]21C
> 1000 nM: Ki [2] | Ki [3] | Ki (Mu-type opioid receptor)

COC(=O)[C@@H]1C[C@H](OC(C)=O)C(=O)[C@H]2[C@@]1(C)CC[C@H]1C(=O)O[C@H](c3cn(C)nn3)C[C@]21C
> 1000 nM: Ki [2] | Ki [3] | Ki (Mu-type opioid receptor)

COC(=O)[C@@H]1C[C@H](OC(C)=O)C(=O)[C@@H]2[C@@]3(C)C[C@@H](c4c[nH]nn4)OC(=O)[C@H]3CC[C@]21C
> 1000 nM: Ki [2] | Ki [3] | Ki (Mu-type opioid receptor)

COC(=O)[C@@H]1C[C@H](OC(C)=O)C(=O)[C@H]2[C@@]1(C)CC[C@H]1C(=O)O[C@H](c3c[nH]nn3)C[C@]21C
> 1000 nM: Ki [2] | Ki [3] | Ki (Mu-type opioid receptor)

CCn1cc([C@@H]2C[C@]3(C)[C@H]4C(=O)[C@@H](OC(C)=O)C[C@@H](C(=O)OC)[C@]4(C)CC[C@H]3C(=O)O2)nn1
> 1000 nM: Ki [2] | Ki [3] | Ki (Mu-type opioid receptor)
